# Assay results as given in patent US8618068B2, “Methods and low dose regimens for treating red blood cell disorders” (priority 2009, dated 2013).
# Marks after values point to notes of the source that are not given here.
# Tests used:
# [1] = tested on: γ-globin mRNA; assay: γ-globin mRNA in anemic baboons given HU and DMB; format: in vivo; settings: HU 3 days/week
# [2] = tested on: fetal globin; settings: cited from earlier work
# [3] = tested on: micronucleated erythrocytes (PCEs); settings: cited from earlier work
# [4] = tested on: F-cells; assay: F-cells in Bfu-e erythroid progenitor cultures; format: cell-based
# [5] = tested on: β- and γ-globin gene promoters; assay: Double-luciferase reporter assay of γ-globin expression in GM979 cells; format: cell-based, murine
# Description: DMB was compared to arginine butyrate (AB) for its ability to induce y-globin expression in a double-luciferase reporter assay in murine erythroleukemia (GM979) cells transfected with the pLCR linked to the β- and γ-globin gene promoters linked to a different luciferase gene.
compound,measurement,setting,value
"NC(=O)NO [HU, hydroxyurea]",γ-globin mRNA increase above baseline,[1],80-120%
same,patients in whom clinical benefit is observed,[2]; SCD patients,40-50%
same,treatment required for optimal effects on HbF,[2]; at a level close to the maximum tolerated dose,6-9 months
O=P1(N(CCCl)CCCl)NCCCO1 (stereo not shown) [cyclophosphamide],"historical positive control values, mean±SD",[3],"19.2±15.5 MN PCEs/1,000 PCEs"
"Nc1ncn([C@H]2C[C@H](O)[C@@H](CO)O2)c(=O)n1 [decitabine, 5-aza-2′-deoxycytidine, reference compound]",F-cells increase above F-cell levels in control cultures,[4],66-104%
Arginine butyrate [reference compound],Mean Fold Increase,"[5]; 0.5 mM, compared to untreated controls, p ≦ 0.01",1.8*
same,"γ/(γ + β) globin Expression, Range",[5]; Active Concentration 0.5 mM,0.029-0.047
